In test [1] the test system is Wnt activity (SW480 colon carcinoma cells stably expressing the Sp5-Luc reporter gene). As to the kind of experiment: Sp5-Luc reporter gene screening assay for Wnt activity. To be noted: Homo sapiens. It counts as cell-based. The source says: The screening assay for Wnt activity is described as follows. Reporter cell lines can be generated by stably transducing cancer cell lines (e.g., colon cancer) or primary cells (e.g., IEC-6 intestinal cells) with a lentiviral construct that includes a Wnt-responsive promoter driving expression of the firefly luciferase gene.
SW480 colon carcinoma cells were transduced with a lentiviral vector expressing luciferase with a human Sp5 promoter consisting of a sequence of eight TCF/LEF binding sites. SW480 cells stably expressing the Sp5-Luc reporter gene and a hygromycin resistance gene were selected by treatment with 150 μg/ml of hygromycin for 7 days. These stably transduced SW480 cells were expanded in cell culture and used for all further screening activities. For Sp5-Luc reporter gene assays, the cells were plated at 10,000 cells/well in 96-well plates with growth medium containing 10% fetal calf serum and incubated overnight at 37° C. and 5% CO2. Each compound was dissolved in DMSO as a 10 mM stock in standard j-vials and used to prepare compound source plates in dose-response format with 3-fold serial dilutions and a 10 mM top concentration. Compound transfer from serially diluted source plates to assay plates containing the cells was accomplished using a pintool (Multimek 96, Beckman equipped with V&P Scientific FP1S50H pins) based liquid handling protocol. This protocol used a slotted pin to transfer 50 nl of compound from a source plate well to an assay plate well containing 50 μl of cells in growth medium. […] Control wells received 50 nl of DMSO treatment for normalization and calculating IC50 values. The treated cells were incubated at 37° C. and 5% CO2 for an additional forty-two hours. Following incubation, the growth medium was removed and 50 μl of BrightGlo luminescence reagent (Promega) was added to each well of the 96-well assay plates. The plates were placed on an orbital shaker for 5 min and then luminescence was quantified on the Victor3 (Perkin Elmer) plate reader. Readings were normalized to DMSO only treated cells, and normalized activities were utilized for IC50 calculations using the dose-response log (inhibitor) vs. response -variable slope (four parameters) nonlinear regression feature available in GraphPad Prism 5.0 or 6.0.
In general terms: A reporter such as luciferase makes a cellular process visible.

In test [2] the test system is primary human fibroblasts derived from IPF patients (LL29 cells). As to the kind of experiment: Inhibition of the fibrotic process in TGF-β1 treated IPF patient fibroblasts (αSMA staining). It counts as cell-based. To be noted: Fibroblast, 96 h, LL29 cells treated with TGF-β1 (20 ng/mL), 4 days, read-out: Inhibition of fibrosis EC50. From the text: The above synthesized compounds were screened using primary human fibroblasts (derived from IPF patients) treated with TGF-β1 to determine their ability to inhibit the fibrotic process.
Primary human fibroblasts derived from IPF patients (LL29 cells) [^1Xiaoqiu Liu, et. al., “Fibrotic Lung Fibroblasts Show Blunted Inhibition by cAMP Due to Deficient cAMP Response Element-Binding Protein Phosphorylation”, Journal of Pharmacology and Experimental Therapeutics (2005), 315(2), 678-687; ^2Watts, K. L., et. al., “RhoA signaling modulates cyclin D1 expression in human lung fibroblasts; implications for idiopathic pulmonary fibrosis”, Respiratory Research (2006), 7(1), 88] were obtained from American Type Culture Collection (ATCC) and expanded in F12 medium supplemented with 15% Fetal Bovine Serum and Penicillin/Streptomycin.
Each compound was dissolved in DMSO as a 10 mM stock and used to prepare compound source plates. Serial dilution (1:2, 11-point dose-response curves from 10 μM to 1.87 nM) and compound transfer was performed using the ECHO 550 (Labcyte, Sunnyvale, Calif.) into 384-well clear bottom assay plates (Greiner Bio-One) with appropriate DMSO backfill for a final DMSO concentration of 0.1%. LL29 cells were plated at 1,500 cells/well in 80 μl/well F12 medium supplemented with 1% Fetal Bovine Serum. One hour after addition of the cells, TGF-β1 (Peprotech; 20 ng/mL) was added to the plates to induce fibrosis (ref. 1 and 2 above). Wells treated with TGF-β1 and containing DMSO were used as controls. Cells were incubated at 37° C. and 5% CO2 for 4 days. Following incubation for 4 days, SYTOX green nucleic acid stain (Life Technologies [Thermo Fisher Scientific]) was added to the wells at a final concentration of 1 uM and incubated at room temperature for 30 min. Cells were then fixed using 4% formaldehyde (Electron Microscopy Sciences), washed 3 times with PBS followed by blocking and permeabilization using 3% Bovine Serum Albumin (BSA; Sigma) and 0.3% Triton X-100 (Sigma) in PBS. Cells were then stained with antibody specific to α-smooth muscle actin (αSMA; Abcam) (ref. 1 and 2 above) in 3% Bovine Serum Albumin (BSA; Sigma) and 0.3% Triton X-100 (Sigma) in PBS, and incubated overnight at 4° C. Cells were then washed 3 times with PBS, followed by incubation with Alexa Flor-647 conjugated secondary antibody (Life Technologies [Thermo Fisher Scientific]) and DAPI at room temperature for 1 hour. Cells were then washed 3 times with PBS and plates were sealed for imaging. αSMA staining was imaged by excitation at 630 nm and emission at 665 nm and quantified using the Compartmental Analysis program on the CellInsight CX5 (Thermo Scientific). Dead or apoptotic cells were excluded from analysis based on positive SYTOX green staining. % of total cells positive for αSMA were counted in each well and normalized to the average of 11 wells treated with TGF-β1 on the same plate using Dotmatics' Studies Software. The normalized averages (fold change over untreated) of 3 replicate wells for each compound concentration were used to create dose-responses curves and EC50 values were calculated using non-linear regression curve fit in the Dotmatics' Studies Software. The EC50 values are reported.

As usually defined, the IC50 is the concentration that inhibits the measured activity by half. As a reminder, the EC50 is the concentration giving half of the maximal effect.

The compound `Cc1cn(-c2ccnc3[nH]c(-c4n[nH]c5ncc(-c6cncc(CN7CCCC7)c6)cc45)nc23)cn1` [Compound 171, 3-(7-(4-Methyl-1H-imidazol-1-yl)-3H-imidazo[4,5-b]pyridin-2-yl)-5-(5-(pyrrolidin-1-ylmethyl)pyridin-3-yl)-1H-pyrazolo[3,4-b]pyridine] gave an IC50 in test [1] of 276 nM. The half-maximal effective concentration (EC50) in test [2] was at most 9 nM.
The corresponding values for `Fc1cccc(-c2ccnc3[nH]c(-c4n[nH]c5ncc(C6=CCNCC6)cc45)nc23)c1` [Compound 910, 3-(7-(3-Fluorophenyl)-3H-imidazo[4,5-b]pyridin-2-yl)-5-(1,2,3,6-tetrahydropyridin-4-yl)-1H-pyrazolo[3,4-b]pyridine] are over 10000 nM and at least 9990 nM.
In test [1], `CCNCc1cncc(-c2cnc3[nH]nc(-c4nc5c(-c6ccoc6)ccnc5[nH]4)c3c2)c1` [Compound 264, N-((5-(3-(7-(Furan-3-yl)-3H-imidazo[4,5-b]pyridin-2-yl)-1H-pyrazolo [3,4-b]pyridin-5-yl)pyridin-3-yl)methyl)ethanamine] showed an IC50 of over 10000 nM. The EC50 in test [2] was at most 9 nM.
The corresponding values for `O=C(Nc1cncc(-c2cnc3[nH]nc(-c4nc5c(-c6ccccc6F)ccnc5[nH]4)c3c2)c1)C1CCCC1` [Compound 61, N-(5-(3-(7-(2-Fluorophenyl)-3H-imidazo[4,5-b]pyridin-2-yl)-1H-pyrazolo[3,4-b]pyridin-5-yl)pyridin-3-yl)cyclopentanecarboxamide] are 42 nM and 587 nM.
On the same counts, the results for `c1cncc(-c2cnc3[nH]nc(-c4nc5c(-c6cccnc6)ccnc5[nH]4)c3c2)c1` [Compound 68, 5-(Pyridin-3-yl)-3-(7-(pyridin-3-yl)-3H-imidazo[4,5-b]pyridin-2-yl)-1H-pyrazolo[3,4-b]pyridine] are over 10000 nM and at least 9990 nM.
On the same counts, the results for `CCNCc1cncc(-c2cnc3[nH]nc(-c4nc5c(-c6ccccn6)ccnc5[nH]4)c3c2)c1` [Compound 114, N-((5-(3-(7-(Pyridin-2-yl)-3H-imidazo[4,5-b]pyridin-2-yl)-1H-pyrazolo[3,4-b]pyridin-5-yl)pyridin-3-yl)methyl)ethanamine] are over 10000 nM and at least 9990 nM.
The compound `CC(=O)c1ccc(-c2ccnc3[nH]c(-c4n[nH]c5ncc(-c6cncc(NC(=O)C7CCCCC7)c6)cc45)nc23)s1` [Compound 384, N-(5-(3-(7-(5-Acetylthiophen-2-yl)-3H-imidazo[4,5-b]pyridin-2-yl)-1H-pyrazolo[3,4-b]pyridin-5-yl)pyridin-3-yl)cyclohexanecarboxamide] registered an IC50 in test [1] of over 10000 nM. In test [2], the EC50 is at least 9990 nM.
On the same counts, the results for `Fc1cccc(-c2ccnc3[nH]c(-c4n[nH]c5ncc(-c6ccccn6)cc45)nc23)c1` [Compound 925, 3-(7-(3-Fluorophenyl)-3H-imidazo[4,5-b]pyridin-2-yl)-5-(pyridin-2-yl)-1H-pyrazolo[3,4-b]pyridine] are over 10000 nM and at least 9990 nM.
On the same counts, the results for `COc1cncc(-c2cnc3[nH]nc(-c4nc5c(-c6cccc(F)c6)ccnc5[nH]4)c3c2)c1` [Compound 920, 3-(7-(3-Fluorophenyl)-3H-imidazo[4,5-b]pyridin-2-yl)-5-(5-methoxypyridin-3-yl)-1H-pyrazolo[3,4-b]pyridine] are 1050 nM and at most 9 nM.
The corresponding values for `FC1(F)CCN(Cc2cncc(-c3cnc4[nH]nc(-c5nc6c(N7CCCCC7)ccnc6[nH]5)c4c3)c2)C1` [Compound 157, 5-(5-((3,3-Difluoropyrrolidin-1-yl)methyl)pyridin-3-yl)-3-(7-(piperidin-1-yl)-3H-imidazo[4,5-b]pyridin-2-yl)-1H-pyrazolo[3,4-b]pyridine] are 4210 nM and at most 9 nM.
Turning to `CN(C)Cc1cncc(-c2cnc3[nH]nc(-c4nc5c(-c6cccs6)ccnc5[nH]4)c3c2)c1` [Compound 297, N,N-Dimethyl-1-(5-(3-(7-(thiophen-2-yl)-3H-imidazo[4,5-b]pyridin-2-yl)-1H-pyrazolo[3,4-b]pyridin-5-yl)pyridin-3-yl)methanamine], in test [1], the IC50 is over 10000 nM. Further, the EC50 in test [2] is at least 9990 nM.
Consider `Cc1ccncc1-c1cnc2[nH]nc(-c3nc4c(-c5ccsc5)ccnc4[nH]3)c2c1` [Compound 237, 5-(4-Methylpyridin-3-yl)-3-(7-(thiophen-3-yl)-3H-imidazo[4,5-b]pyridin-2-yl)-1H-pyrazolo[3,4-b]pyridine], for which the concentration for half-maximal inhibition (IC50) in test [1] was found to be 21.6 nM. Also, the 50% effective concentration (EC50) in test [2] stood at 282 nM.
In test [1], `CN1CCN(c2ccnc3[nH]c(-c4n[nH]c5ncc(-c6cncc(N)c6)cc45)nc23)CC1` [Compound 186, 5-(3-(7-(4-Methylpiperazin-1-yl)-3H-imidazo[4,5-b]pyridin-2-yl)-1H-pyrazolo[3,4-b]pyridin-5-yl)pyridin-3-amine] returned an IC50 of over 10000 nM. For the same compound, the concentration for a half-maximal effect (EC50) in test [2] was at least 9990 nM.
On to `Fc1cccc(-c2ccnc3[nH]c(-c4n[nH]c5ncc(-c6ccncc6)cc45)nc23)c1` [Compound 924, 3-(7-(3-Fluorophenyl)-3H-imidazo[4,5-b]pyridin-2-yl)-5-(pyridin-4-yl)-1H-pyrazolo[3,4-b]pyridine], for which the IC50 in test [1] is over 10000 nM. Besides, the EC50 in test [2] is at least 9990 nM.
On the same counts, the results for `CC(C)Nc1cncc(-c2cnc3[nH]nc(-c4nc5c(-c6cc(F)cc(NCCN(C)C)c6)ccnc5[nH]4)c3c2)c1` [Compound 426, N^1-(3-Fluoro-5-(2-(5-(5-(isopropylamino)pyridin-3-yl)-1H-pyrazolo [3,4-b]pyridin-3-yl)-3H-imidazo[4,5-b]pyridin-7-yl)phenyl)-N^2,N^2-dimethylethane-1,2-diamine] are 129 nM and 287 nM.
On the same counts, the results for `Cc1ccc(-c2ccnc3[nH]c(-c4n[nH]c5ncc(-c6cncc(CN7CCCCC7)c6)cc45)nc23)s1` [Compound 351, 3-(7-(5-Methylthiophen-2-yl)-3H-imidazo[4,5-b]pyridin-2-yl)-5-(5-(piperidin-1-ylmethyl)pyridin-3-yl)-1H-pyrazolo[3,4-b]pyridine] are over 10000 nM and at least 9990 nM.
Turning to `CC(C)CC(=O)Nc1cncc(-c2cnc3[nH]nc(-c4nc5c(-c6ccc(F)s6)ccnc5[nH]4)c3c2)c1` [Compound 312, N-(5-(3-(7-(5-Fluorothiophen-2-yl)-3H-imidazo[4,5-b]pyridin-2-yl)-1H-pyrazolo[3,4-b]pyridin-5-yl)pyridin-3-yl)-3-methylbutanamide], half-maximal inhibition in test [1] (IC50) was put at 27 nM. In test [2], the EC50 is 189 nM.

The record behind these values is patent US10526347B2, “3-(3H-imidazo[4,5-B]pyridin-2-yl)-1H-pyrazolo[3,4-B]pyridine and therapeutic uses thereof” (Samumed, LLC, priority 2014, dated 2020).
